Experimental data: patent US8030511B2, “Method for the manufacture of therapeutic compounds and compositions, compounds and compositions produced therewith, and their use” (priority 2006, dated 2011)

Legend:
[1] = Intravenous infusion of NO dissolved in liquid medium in L-NAME pre-treated rabbit; assay type: in vivo
Method: Experiments were approved by the local ethics committee on animal experimentation. A male New Zealand white rabbit was anesthetised, prepared and examined as in the protocol presented in Example 2. The rabbit was pre-treated with L-NAME (30 mg kg^−1) and received one infusion with NO-gas dissolved in normal saline and one with NO-gas dissolved in lipid emulsion ([…]®, Fresenius Kabi) through the catheter in the jugular vein without carrier flow. The infusion rate was for both liquids 0.5 ml kg^−1 min^−1. There was a recovery period between the two infusions for about 200 min.
The infusion liquids were created the same way. First the liquid was de-aerated for 20 min, in a gas-tight glass chamber with a rubber membrane with an inert gas; in this case helium gas, but nitrogen, argon etc could also be used. After this no oxygen were allowed to enter the liquid throughout the following procedure. The liquid was then purged with pure NO of a few minutes. The liquid was then collected through the rubber membrane in a gas-tight syringe with needle and from this syringe infused by means of syringe pump (864 Syringe Pump, Univentor LTD., Zejtun, Malta) in the jugular vein catheter.

[2] = Verification of NO donating capacity (1% sodium iodide in hot acetic acid, chemiluminescence); assay type: physicochemical
Excerpt: Samples of eluents from the HPLC system were collected and analyzed for NO/nitrite content by injection into a reaction vessel containing 1% sodium iodide in hot acetic acid. Released nitric oxide was purged into a chemiluminescence analyzer system optimized for detection of nitric oxide by chemiluminescence reaction with ozone and determination of NO+ozone-generated excited NO2 product through counting of emitted photons.

[3] = Cederqvist et al., 1994; cited from earlier work
[4] = HPLC of commercial organic nitrites diluted in deoxygenated water versus NO-saturated water; assay type: physicochemical; settings: for size of HPLC peak (UV max 225 nm), dilution in de-aerated NO saturated solutions: Novapak C8 or CN column
Method: Analysis of reaction mixtures and commercial organic nitrites and nitrates was made by high performance liquid chromatography (HPLC) using reverse phase chromatography on C8, C18 or CN columns (Waters Inc. NOVAPAK™ 4 μm particle size 8×100 mm radial compression columns) by means of two LDC Constametric pumps delivering a constant total flow of 1 ml per min, controlled by a computerized gradient control system generating a linear gradient of 0-100% methanol (elution solvent B) in 33 min, starting 1 min after injecting sample in the aqueous initial elution solvent (solvent A) which contained 5 mM ammonium formiate at pH 6. Separation of eluted compounds was determined by an LDC Spectromonitor variable UV monitor set at 210 nm, followed by a Pharmacia Wavescan wavelength scanning detector producing UV scans between 190 and 370 nm at 4 s intervals which were stored on a computer and analyzed after each HPLC run. The output from the LDC Spectromonitor was continuously recorded on a strip chart recorder.
HPLC: On all three Novapak columns and on the Thermo column a single peak of product, from the reaction between propanol and NO gas, eluted at a gradient concentration of 70-80% methanol. In the NOVAPAK C18 system this corresponded to an elution time of approximately 28 min (FIG. 12, panel C). […] When a standard sample of propyl nitrite (Karl Industries Inc., Aurora, Ohio, USA) diluted in a gas-type cylinder in deoxygenated (10 min He purging) water at 1:1000 was injected, a small peak at 28 min was obtained (FIG. 12, panel A), having an identical UV absorbance max at 225 nm. […] Similar results were obtained on the C8 and CN columns, a single retained peak was obtained from the reaction mixture consisting of propanol and NO, although at somewhat shorter retention times, compared with the C18 system.
Commercial samples of ethyl nitrite, butyl nitrite, and isobutyl nitrite (Sigma-Aldrich) were diluted anaerobically as above and injected onto the HPLC system, using either the Novapak C8 or CN column. Peaks with UV absorbance maxima of approximately 225 nm were obtained in all the samples, but at different retention times corresponding to the expected differences judged from the lipophilic chain length of the compounds. All these peaks were larger if the dilution of the organonitrite had been done in de-aerated NO saturated solutions. The respective peaks with UV max at 225 nm coincided with single similar peaks obtained by treating the corresponding alcohol (ethanol, butanol, isobutanol) with NO gas. This was taken as evidence that the corresponding organic mononitrite had formed.

venous gas embolism = experiment: Treatment of venous gas embolism in an animal with inhibited NO production; assay type: in vivo
Excerpt: The beneficial effects may be induction of vasodilation in the pulmonary vasculature, inhibition of aggregation of trombocytes and/or minor vasodilation in the whole or parts of the systemic circulation, for example in the coronary circulation.

[5] = before 30 mg kg^−1 throughout 10 min

## COC(=O)[C@@H](N)CCCNC(=N)N[N+](=O)[O-] [L-NAME, N^G-nitro-L-arginine methyl ester]
[1]; 30 mg kg^−1 throughout 10 min
  exhaled nitric oxide after L-NAME infusion: < 1 ppb
  heart rate (HR) after L-NAME infusion: 258 beats min^−1
  systemic mean arterial blood pressure (MAP) after L-NAME infusion: 128 cmH2O
[1]; L-NAME 30 mg kg^−1 throughout 10 min
  End-tidal CO2 and the relevant blood gas parameters: normal
[1]; [5]
  exhaled nitric oxide before L-NAME infusion: 19 ppb
  heart rate (HR) before L-NAME infusion: 274 beats min^−1
  systemic mean arterial blood pressure (MAP) before L-NAME infusion: 103 cmH2O

## O=[N+]([O-])OCC(CO[N+](=O)[O-])O[N+](=O)[O-] [Nitroglycerin, glyceryl trinitrate]
[2]
  release of NO by mild reduction treatment: did not yield a release of NO
[3]
  generation of NO in vivo: generate NO

## CCCCON=O [butyl nitrite]
[4]
  size of HPLC peak (UV max 225 nm), dilution in de-aerated NO saturated solutions: larger
[3]
  generation of NO in vivo: generate NO

## CCON=O [ethyl nitrite]
[4]
  size of HPLC peak (UV max 225 nm), dilution in de-aerated NO saturated solutions: larger
[3]
  generation of NO in vivo: generate NO

## [N]=O [inhaled nitric oxide, nitric oxide]
Venous gas embolism
  treatment of venous gas embolism: impossible to treat

## CC(C)CCON=O [isoamyl nitrite]
[3]
  generation of NO in vivo: generate NO

## CC(C)CO[N+](=O)[O-] [isobutyl nitrate]
[3]
  generation of NO in vivo: generate NO

## CC(C)CON=O [isobutyl nitrite]
[4]
  size of HPLC peak (UV max 225 nm), dilution in de-aerated NO saturated solutions: larger
[3]
  generation of NO in vivo: generate NO

## CCCON=O [propyl nitrite]
[4]; dilution 1:1000, Novapak C18
  size of 28 min HPLC peak, dilution in water saturated with NO gas vs deoxygenated water: 5-10 times
